Data published in patent US9925398B2, “Angiogenic peptide” (NOVACELL TECHNOLOGY INC., priority 2008, dated 2018).

Legend:
HUVECs [1] = experiment: [Ca2+]i increase in HUVECs; type: cell-based, human; conditions: 10 μM
Protocol: Cells were incubated with 4 μM Fura-2 AM and 250 μM sulfinpyrazone in serum-free DMEM medium at 37° C. for 30 min with continuous stirring. The cells were then washed with Locke's solution (M. Faehling, et al., FASEB J 16 (2002), pp. 1805-1807) and diluted to 2×10^6 cells/mL. 50 μL aliquots of cell suspension were added to each well of a 96-well plate, and the change in fluorescence ratio was determined at dual excitation wavelengths of 340 and 380 nm and emission wavelength of 500 nm following addition of peptides. Plates were read immediately following the addition of peptide pools, resulting in a time delay of approximately 5 s between peptide addition and detection by the FLEXstation (Molecular Devices). Negative and positive controls were run simultaneously with test samples to ensure that all samples were subjected to identical conditions. The calibration of the fluorescence ratio in terms of [Ca^2+]i was performed according to Grynkiewicz et al. J Biol Chem 260 (1985), pp. 3440-3450.
To verify that SFKLRY-NH2 (SEQ ID NO: 2) induces [Ca^2+]i increase in human endothelial cells, intracellular Ca^2+ mobilization in primary cultured human umbilical vein endothelial cells (HUVECs) were measured. Treatment with SFKLRY-NH2 (SEQ ID NO: 2) induced [Ca^2+]i increase in HUVECs with the half-maximal effect at 1.4±0.15 μM. […]

HUVECs [2] = experiment: Tube formation assay on Matrigel; type: cell-based, human; conditions: 24 h
Protocol: As described previously in M. S. Lee, et al., J Immunol 177 (2006), pp. 5585-5594, HUVECs were seeded on a layer of previously polymerized Matrigel with SFKLRY-NH2 (SEQ ID NO: 2), its scrambled sequence FYSRLK-NH2, S1P or VEGF in the presence or absence of VEGF neutralizing antibody. After 24 h of incubation, changes in cell morphology were observed through a phase-contrast microscope and photographed. To measure the formation of the capillary network, the total tube length per field was measured at 40× magnification with the scale. Three different fields were analyzed per well.
FIGS. 2A-2C show SFKLRY-NH2 (SEQ ID NO: 2) induces proliferation, migration, and tube formation in HUVECs. (A) The effect of SFKLRY-NH2 on proliferation of HUVECs. […] After 48 h of incubation, the activity of DNA synthesis was counted with a liquid scintillation counter. […] After wounding, HUVECs were incubated with indicated concentration of SFKLRY-NH2 (SEQ ID NO: 2) (0.1-10 μM) for 16 h and then migrated HUVECs beyond the reference line were counted. […] After incubation for 24 h, the tubular-like structures were photographed and the length of tube formation was measured. […]
FIGS. 6A-6B show anti-VEGF antibody suppress SFKLRY-NH2 (SEQ ID NO: 2)-induced tube formation in HUVECs. […] After incubation for 24 h, the tubular-like structures were photographed and the length of tube formation was measured. […]

Rat aortic explants = experiment: Aortic ring assay (vessel sprouting ex vivo); type: cell-based; conditions: 1 μM; 7 days
Protocol: The method developed by Nicosia and Ottinetti in In Vitro Cell Dev Biol 26 (1990), pp. 119-128 was used with some modifications. Aortas were harvested from 6-week-old Sprague-Dawley rats. After removing the surrounding fibro-adipose tissues, the rings were immersed in Matrigel in wells within culture dishes. The aortic rings were cultured (5% CO2, 37° C.) in serum-free M199 containing SFKLRY-NH2 (SEQ ID NO: 2), S1P, FYSRLK-NH2, or VEGF in the presence or absence of PTX or U73122. On day 7, sprouting from aortic explants was measured.
To address whether SFKLRY-NH2 (SEQ ID NO: 2) plays a role in sprouting of vascular endothelial cells ex vivo, aortic rings were analyzed in the presence of various stimuli including 1 μM SFKLRY-NH2 (SEQ ID NO: 2), 10 ng/mL VEGF, 10 nM S1P, and 10% FBS. […] Rat aortic explants in Matrigel were incubated with M-199 harboring SFKLRY-NH2 (SEQ ID NO: 2) (1 μM), FYSRLK-NH2 (1 μM), S1P (10 nM), VEGF (10 ng/mL), SFKLRY-NH2 (SEQ ID NO: 2) (1 μM) with U73122 (10 μM) or PTX (50 ng/mL), or 10% FBS and photographed after incubation for 7 days. Three independent experiments were then conducted, each in duplicate.

| Compound | Ca2+ mobilization (HUVECs [1]) | Tube-forming activity (length of tube formation) (HUVECs [2]; 10 μM) | vessel sprouting activity (outgrowth of endothelial cells) (Rat aortic explants) | Tube-forming activity (length of tube formation) (HUVECs [2]; 100 nM) |
| --- | --- | --- | --- | --- |
| FYSRLK-NH2 | did not trigger Ca^2+ mobilization | 8.96±1.14 | negligible activity |  |
| CCCCCCCCCCCCC/C=C/[C@@H](O)[C@@H](N)COP(=O)(O)O [S1P, sphingosine-1-phosphate] |  |  |  | 19.69±0.32 |
